Data reported in patent US20070275382A1, “Biomarkers for the Efficacy of Somatostatin Analogue Treatment” (priority 2003, published 2007).
*1 amine or outer side, *2 acyl side, *3 side chain or, on linkers, in order; H or OH if unused. Where a SMILES comes first, the peptide text is derived from it. Side-chain parts run from the residue outwards. [ ]: non-standard residue; d: D form. The star is where a group is joined. Ethylenediamine = C(CN[*:2])N[*:1]; Hyp = O=C(O)[CH]1C[CH](O)CN1; Phg = N[CH](C(=O)O)c1ccccc1; CO = O=C([*:1])[*:2]; Bn = c1ccc(C*)cc1

How the values were obtained:
[1] = tested on: Spleen; assay: Microarray gene expression profiling (HG-U95A), spleen; type: in vivo, cynomolgus monkeys
Procedure: Origin of tissue and processing. Male and female cynomolgus monkeys received subcutaneously pasireotide (100 μg/animal/day) or the vehicle for 14 days. On day 15, all animals were sacrificed and tissues for RNA extraction were immediately snap-frozen and kept at −80° C. until processing.
RNA expression profiling was conducted by means of the HG-U95A gene expression probe array (Affymetrix; Santa Clara, Calif. USA), containing more than 12,600 probe sets interrogating primarily full-length human genes and also some control probe sets. The experiment was conducted according to the recommendations of the manufacturer. Briefly, total RNA was obtained by acid guanidinium thiocyanate-phenol-chloroform extraction (Trizol®, Invitrogen Life Technologies, San Diego, Calif. USA) from each frozen tissue section. The total RNA was then purified on an affinity resin (Rneasy®, Qiagen) and quantified. Double stranded cDNA was synthesized with a starting amount of approximately 5 μg full-length total RNA using the Superscript® Choice System (Invitrogen Life Technologies, Carlsbad, Calif. USA) in the presence of a T7-(dT)24 DNA oligonucleotide primer. Following synthesis, the cDNA was purified by phenol/chloroform/isoamyl alcohol extraction and ethanol precipitation. The purified cDNA was then transcribed in vitro using the BioArray® High Yield RNA Transcript Labeling Kit (ENZO, Farmingdale, N.Y. USA) in the presence of biotinylated ribonucleotides form biotin labelled cRNA. The labelled cRNA was then purified on an affinity resin (Rneasy®, Qiagen), quantified and fragmented. An amount of approximately 10 μg labelled cRNA was hybridized for 16 hours at 45° C. to an expression probe array. The array was then washed and stained twice with streptavidin-phycoerythrin (Molecular Probes,) using the GeneChip® Fluidics Workstation 400 (Affymetrix, Santa Clara, Calif. USA). The array was then scanned twice using a confocal laser scanner (GeneArray® Scanner, Agilent, Palo Alto, Calif. USA) resulting in one scanned image. This resulting “.dat-file” was processed using the MAS4 program (Affymetrix) into a “.cel-file”. The “.cel file” was captured and loaded into the Affymetrix GeneChip® Laboratory Information Management System (LIMS). The LIMS database is connected to a UNIX Sun Solaris server through a network filing system that allows for the average intensities for all probes cells (CEL file) to be downloaded into an Oracle database (NPGN). Raw data was converted to expression levels using a “target intensity” of 150. The data were evaluated for quality control and loaded in the GeneSpring® software 4.2.4 (Silicon Genetics, Calif. USA) for analysis.
On the human Affymetrix HGU95Av2 chip, probe sets for individual genes contain 20 oligonucleotide pairs, each composed of a “perfect match” 25-mer and a “mismatch” 25-mer differing from the “perfect” match oligonucleotide at a single base. After probe labelling, hybridization, and laser scanning, the expression level was estimated by averaging the differences in signal intensity measured by oligonucleotide pairs of a given probe (AvgDiff value). The fold changes and directions were calculated for selected genes, from the differences of the AvgDiff values between controls and treated.
To identify genes that were impacted by pasireotide, the dataset was initially filtered to exclude in a first wave of analysis, genes whose values were systematically in the lower expression ranges where the experimental noise is high (at least 80 in a number of experiments corresponding to the smallest number of replicas of any experimental point). In a second round of selection a threshold p-value of 0.05 (based on a t-test) identified differences between treated and control based on a two component error model (Global Error Model) and, whenever possible, with a stepdown correction for multi-hypothesis testing (Benjamini and Hochberg false discovery rate). […]

[2] = target: T1, hSST-4 (Homo sapiens, UniProt P31391); settings: background statement; cited from earlier work
T1 construct: expressed in transfected cells; host or cells: CHO cells
T1 sequence (P31391 whole entry): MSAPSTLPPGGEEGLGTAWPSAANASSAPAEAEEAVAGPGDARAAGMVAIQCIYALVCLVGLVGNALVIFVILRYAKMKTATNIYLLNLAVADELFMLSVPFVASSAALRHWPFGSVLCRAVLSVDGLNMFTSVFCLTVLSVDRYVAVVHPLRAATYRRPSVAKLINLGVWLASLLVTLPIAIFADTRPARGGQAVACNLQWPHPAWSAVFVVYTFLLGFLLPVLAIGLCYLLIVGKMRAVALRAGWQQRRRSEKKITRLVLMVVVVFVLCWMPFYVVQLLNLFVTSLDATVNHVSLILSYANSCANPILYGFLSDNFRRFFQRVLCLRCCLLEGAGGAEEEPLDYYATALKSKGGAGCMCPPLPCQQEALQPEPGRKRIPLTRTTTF

[3] = ↑ increase, treated vs controls
[4] = ↓ decrease, treated vs controls

NCCCCC1NC(=O)C(Cc2c[nH]c3ccccc23)NC(=O)C(c2ccccc2)NC(=O)C2CC(OC(=O)NCCN)CN2C(=O)C(Cc2ccccc2)NC(=O)C(Cc2ccc(OCc3ccccc3)cc2)NC1=O (stereo not drawn) [Pasireotide, cyclo[4-(NH2—C2H4—NH—CO—O)Pro-Phg-DTrp-Lys-Tyr(4-Bzl)-Phe]] (cyclo(F[Hyp]([CO-Ethylenediamine])[Phg]WKY(Bn)); configuration not given here)
IGF-1 expression level, AvgDiff (range) ([1]; 0.1 mg/animal/14day): 85 (52 to 125)
IGFBP6 expression level, AvgDiff (range) ([1]; 0.1 mg/animal/14day): 1,043 (853 to 1,155)
SSTR2 expression level, AvgDiff (range) ([1]; 0.1 mg/animal/14day): 93 (87 to 95)
ATPase, Na+/K+ transporting, β 1 polypeptide RNA expression fold change [1, 3]: polypeptide ↑ x2.5
Arginine vasopressin receptor 1B RNA expression fold change [1, 3]: receptor 1B ↑ x2
Bcl-2 binding component 3 RNA expression fold change [1, 3]: ↑ x2.5
Ca++ channel, voltage-dependent, α 2/δ subunit 1 RNA expression fold change [1, 3]: subunit 1 ↑ x2
Ca++ channel, voltage-dependent, α 2/δ subunit 2 RNA expression fold change [1, 3]: ↑ x1.5
Calcium/calmodulin-dependent protein kinase (CaM kinase) II β RNA expression fold change [1, 3]: II β ↑ x2
Calmodulin 1 (phosphorylase kinase, δ) RNA expression fold change [1, 3]: kinase, δ) ↑ x2
Calmodulin 2 (phosphorylase kinase, δ) RNA expression fold change [1, 3]: kinase, δ) ↑ x1.5
Caspase 8, apoptosis-related cysteine protease RNA expression fold change [1, 3]: ↑ x2.5
Cdk 2 RNA expression fold change [1, 3]: Cdk 2 ↑ x1.5
Cdk 5, regulatory subunit 1 (p35) RNA expression fold change [1, 3]: ↑ x2
Cdk 6 RNA expression fold change [1, 3]: Cdk 6 ↑ x3
Cyclin D2 RNA expression fold change [1, 3]: Cyclin D2 ↑ x1.5
Death-associated protein RNA expression fold change [1, 3]: ↑ x1.5
Follistatin-like 1 RNA expression fold change [1, 3]: ↑ x1.5
Gastric inhibitory polypeptide receptor RNA expression fold change [1, 3]: receptor ↑ x2
HGF activator inhibitor precursor RNA expression fold change [1, 3]: ↑ x1.5
IFN regulatory factor 2 RNA expression fold change [1, 3]: factor 2 ↑ x3.5
IFN-inducible RNA-dependent protein kinase RNA expression fold change [1, 3]: ↑ x2.5
IFNγ receptor 2 (IFNγ transducer 1) RNA expression fold change [1, 3]: ↑ x1.5
IFNγ responsive transcript RNA expression fold change [1, 3]: ↑ x2
IGF-1 RNA expression fold change [1, 3]: IGF-1 ↑ x1.5
IGFBP6 RNA expression fold change [1, 3]: IGFBP6 ↑ x2.5
IL 1 receptor-like 1 RNA expression fold change [1, 3]: ↑ x2
IL-8 receptor type B RNA expression fold change [1, 3]: ↑ x1.5
IP-4-phosphatase, type 1, isoform b RNA expression fold change [1, 3]: ↑ x2
K+ large conductance Ca++-activated channel, subfamily M, β member 1 RNA expression fold change [1, 3]: ↑ x2.5
LTb4 (chemokine receptor-like 1) RNA expression fold change [1, 3]: receptor-like 1) ↑ x3
PDGF, α polypeptide RNA expression fold change [1, 3]: polypeptide ↑ x2.5
PDGFR, α polypeptide RNA expression fold change [1, 3]: polypeptide ↑ x1.5
PI-3-kinase, class 2, β polypeptide RNA expression fold change [1, 3]: ↑ x1.5
PI-3-kinase, class 3 RNA expression fold change [1, 3]: class 3 ↑ x2
PKC, α binding protein RNA expression fold change [1, 3]: protein ↑ x2
PLA2 RNA expression fold change [1, 3]: PLA2 ↑ x2
Phosphatidylinositol glycan, class B RNA expression fold change [1, 3]: ↑ x1.5
Programmed cell death 10 RNA expression fold change [1, 3]: death 10 ↑ x1.5
Putative chemokine receptor; GTP-binding protein RNA expression fold change [1, 3]: binding protein ↑ x2.5
Rb binding protein RNA expression fold change [1, 3]: protein ↑ x2
Rb-binding protein 8 RNA expression fold change [1, 3]: protein 8 ↑ x1.5
S-phase kinase-associated protein 1A (p19A) RNA expression fold change [1, 3]: 1A (p19A) ↑ x2
SSTR2 RNA expression fold change [1, 3]: SSTR2 ↑ x2
Solute carrier family 9 (Na+/H+ exchanger) isoform 3 regulatory factor 1 RNA expression fold change [1, 3]: ↑ x10.5
TGF induced protein RNA expression fold change [1, 3]: protein ↑ x1.5
TNF (cachectin) RNA expression fold change [1, 3]: ↑ x2
TNFR superfamily, member 12 RNA expression fold change [1, 3]: member 12 ↑ x1.5
Tumour protein p53-binding protein RNA expression fold change [1, 3]: protein ↑ x1.5
VEGF RNA expression fold change [1, 3]: VEGF ↑ x1.5
Vasodilatator-stimulated phosphoprotein RNA expression fold change [1, 3]: phosphoprotein ↑ x2
β adrenergic receptor kinase 1 RNA expression fold change [1, 3]: kinase 1 ↑ x3
S-phase kinase-associated protein 1A RNA expression fold change ([1]; ↑ increase, treated vs controls, second listing, without (p19A)): 1A ↑ x2
Adrenergic, α-2C-, receptor RNA expression fold change [1, 4]: ↓ x2
Cyclin I RNA expression fold change [1, 4]: Cyclin I ↓ x1.5
Dopamine receptor D4 RNA expression fold change [1, 4]: receptor D4 ↓ x2
EGF (β-urogastrone) RNA expression fold change [1, 4]: urogastrone) ↓ x2
K+ voltage-gated channel, shaker-related subfamily, member 3 RNA expression fold change [1, 4]: member 3 ↓ x3
Nuclear factor of activated T-cells, cytoplasmic, calcineurin-dependent 1 RNA expression fold change [1, 4]: dependent 1 ↓ x5
PI-3-kinase, catalytic, α polypeptide RNA expression fold change [1, 4]: polypeptide ↓ x2.5
PTHR 1 RNA expression fold change [1, 4]: PTHR 1 ↓ x2.5
TGFβ receptor III (betaglycan, 300 kD) RNA expression fold change [1, 4]: 300 kD) ↓ x1.5
binding to SSTR4 [2]: binds to all somatostatin receptors except SSTR4
